Laboratory results: the NIST ThermoML archive (doi:10.1021/je060150a)
Numbers after ± are expanded uncertainties.

How the values were obtained:
[1] = Liquid; for mass density / viscosity: 101 kPa
[2] = refractive index (Na D-line) (dimensionless); details: 101.33 kPa, Liquid, Standard Abbe refractometry
[3] = xn = mol fraction of the nth substance listed; details: 101 kPa, Liquid

CCC(C)=O [butanone]
Details | mass density, [1] [kg/m3] | refractive index, [2] | vapor or sublimation pressure, [1] [kPa] | viscosity, [1] [mPa·s]
283.15 K | 815.9 ± 0.3 | 1.384 ± 0.00065 | – | 0.472 ± 0.007
293.15 K | 805.5 ± 0.3 | 1.37888 ± 0.00065 | – | 0.423 ± 0.006
303.15 K | 795.1 ± 0.3 | 1.37383 ± 0.00065 | 15.74 ± 0.4 | 0.382 ± 0.006
313.15 K | 784.3 ± 0.3 | 1.36856 ± 0.00066 | – | 0.347 ± 0.005

CCC(C)=O [butanone] + ClC(Cl)Cl
[3], x2 = 0
Details | mass density [kg/m3] | viscosity [mPa·s]
283.15 K | 815.9 ± 0.3 | 0.472 ± 0.007
293.15 K | 805.5 ± 0.3 | 0.423 ± 0.006
303.15 K | 795.1 ± 0.3 | 0.382 ± 0.006
313.15 K | 784.3 ± 0.3 | 0.347 ± 0.005

ClC(Cl)Cl [trichloromethane]
Details | mass density, [1] [kg/m3] | refractive index, [2] | vapor or sublimation pressure, [1] [kPa] | viscosity, [1] [mPa·s]
283.15 K | 1507.3 ± 0.5 | 1.45189 ± 0.00072 | – | 0.629 ± 0.008
293.15 K | 1488.4 ± 0.5 | 1.44589 ± 0.00072 | – | 0.573 ± 0.008
303.15 K | 1469.4 ± 0.5 | 1.43987 ± 0.00072 | 32.19 ± 0.65 | 0.516 ± 0.007
313.15 K | 1450 ± 0.5 | 1.43386 ± 0.00072 | – | 0.468 ± 0.007

ClC(Cl)Cl [trichloromethane] + CCC(C)=O
[3]
Details | mass density, 283.15 K [kg/m3] | mass density, 293.15 K [kg/m3] | mass density, 303.15 K [kg/m3] | mass density, 313.15 K [kg/m3] | viscosity, 283.15 K [mPa·s] | viscosity, 293.15 K [mPa·s] | viscosity, 303.15 K [mPa·s] | viscosity, 313.15 K [mPa·s]
x1 = 0.0906 | 872.7 ± 0.3 | 861.7 ± 0.3 | 850.7 ± 0.3 | 839.3 ± 0.3 | 0.528 ± 0.007 | 0.475 ± 0.007 | 0.419 ± 0.006 | 0.385 ± 0.006
x1 = 0.1806 | 930.4 ± 0.3 | 918.7 ± 0.3 | 907.1 ± 0.3 | 895.1 ± 0.3 | 0.588 ± 0.008 | 0.526 ± 0.007 | 0.468 ± 0.007 | 0.42 ± 0.006
x1 = 0.272 | 990.2 ± 0.3 | 977.9 ± 0.3 | 965.6 ± 0.3 | 952.9 ± 0.3 | 0.627 ± 0.008 | 0.556 ± 0.008 | 0.499 ± 0.007 | 0.451 ± 0.006
x1 = 0.3661 | 1053.3 ± 0.3 | 1040.2 ± 0.3 | 1027.2 ± 0.3 | 1013.7 ± 0.3 | 0.66 ± 0.009 | 0.594 ± 0.008 | 0.53 ± 0.007 | 0.477 ± 0.007
x1 = 0.4551 | 1113.9 ± 0.3 | 1100.2 ± 0.3 | 1086.4 ± 0.3 | 1072.3 ± 0.3 | 0.692 ± 0.009 | 0.62 ± 0.008 | 0.553 ± 0.008 | 0.498 ± 0.007
x1 = 0.549 | 1179.5 ± 0.3 | 1165 ± 0.3 | 1150.5 ± 0.3 | 1135.5 ± 0.3 | 0.711 ± 0.009 | 0.633 ± 0.008 | 0.565 ± 0.008 | 0.51 ± 0.007
x1 = 0.633 | 1238.9 ± 0.4 | 1223.7 ± 0.4 | 1208.5 ± 0.3 | 1192.7 ± 0.3 | 0.712 ± 0.009 | 0.636 ± 0.008 | 0.571 ± 0.008 | 0.515 ± 0.007
x1 = 0.7035 | 1289.3 ± 0.4 | 1273.6 ± 0.4 | 1257.7 ± 0.4 | 1241.3 ± 0.4 | 0.717 ± 0.009 | 0.631 ± 0.008 | 0.566 ± 0.008 | 0.513 ± 0.007
x1 = 0.7973 | 1357.5 ± 0.4 | 1340.7 ± 0.4 | 1323.9 ± 0.4 | 1306.6 ± 0.4 | 0.701 ± 0.009 | 0.63 ± 0.008 | 0.566 ± 0.008 | 0.51 ± 0.007
x1 = 0.9068 | 1437.7 ± 0.5 | 1419.8 ± 0.5 | 1401.8 ± 0.5 | 1383.4 ± 0.4 | 0.674 ± 0.009 | 0.61 ± 0.008 | 0.546 ± 0.007 | 0.491 ± 0.007
x1 = 1 | 1507.3 ± 0.5 | 1488.4 ± 0.5 | 1469.4 ± 0.5 | 1450 ± 0.5 | 0.629 ± 0.008 | 0.573 ± 0.008 | 0.516 ± 0.007 | 0.468 ± 0.007
